# US7612065B2, “Inhibitors of c-JUN N-terminal kinases (JNK)” (priority 2007, dated 2009)
# Biological target: T1, JNK3 (Homo sapiens, UniProt P53779)
# T1 construct: One such construct encodes amino acid residues Ser40-Glu402 of JNK3α1 and is preceded by Met and Gly residues; Met-Gly (initiation methionine plus glycine added for the NcoI site); made in house; host or cells: E. coli BL21 (DE3)
# Experiment: JNK inhibition assay: spectrophotometric coupled-enzyme assay with activated JNK3
# Assay type: biochemical
# Settings: activated JNK3 10 nM, 10 μM ATP, 200 μM EGF receptor peptide, 30° C., competitive inhibition model
# Description: A BLAST search of the EST database using the published JNK3α1 cDNA as a query identified an EST clone (#632588) that contained the entire coding sequence for human JNK3α1. Polymerase chain reactions (PCR) using pfu polymerase (Strategene) were used to introduce restriction sites into the cDNA for cloning into the pET-15B expression vector at the NcoI and BamHI sites. The protein was expressed in E. coli. […] This truncation corresponds to Ser 2 of JNK1 and JNK2 proteins, and is preceded by a methionine (initiation) and a glycine residue. The glycine residue was added in order to introduce an NcoI site for cloning into the expression vector. In addition, systematic C-terminal truncations were performed by PCR to identify a construct that give rise to diffraction-quality crystals.
# 5 mg of JNK3 was diluted to 0.5 mg/ml in 50 mM HEPES buffer, pH 7.5, containing 100 mM NaCl, 5 mM DTT, 20 mM MgCl2 and 1 mM ATP. GST-MKK7(DD) was added at a molar ratio of 1:2.5 GST-MKK7:JNK3. After incubation for 30 minutes at 25° C., the reaction mixture was concentrated 5-fold by ultrafiltration in a Centriprep-30 (Amicon, Beverly, Mass.), diluted to 10 ml and an additional 1 mM ATP added. This procedure was repeated three times to remove ADP and replenish ATP. The final addition of ATP was 5 mM and the mixture incubated overnight at 4° C.
# The activated JNK3/GST-MKK7(DD) reaction mixture was exchanged into 50 mM HEPES buffer, pH 7.5, containing 5 mM DTT and 5% glycerol (w/v) by dialysis or ultrafiltration. The reaction mixture was adjusted to 1.1 M potassium phosphate, pH 7.5, and purified by hydrophobic interaction chromatography (at 25° C.) using a Rainin Hydropore column. […] Activated JNK3 (i.e. doubly phosphorylated JNK3) was stored at −70° C. at 0.25-1 mg/ml.
# Compounds were assayed for the inhibition of JNK3 by a spectrophotometric coupled-enzyme assay. In this assay, a fixed concentration of activated JNK3 (10 nM) was incubated with various concentrations of a potential inhibitor dissolved in DMSO for 10 minutes at 30° C. in a buffer containing 0.1 M HEPES buffer, pH 7.5, containing 10 mM MgCl2, 2.5 mM phosphoenolpyruvate, 200 μM NADH, 150 μg/mL pyruvate kinase, 50 μg/mL lactate dehydrogenase, and 200 μM EGF receptor peptide. […] The reaction was initiated by the addition of 10 μM ATP and the assay plate is inserted into the spectrophotometer's assay plate compartment that was maintained at 30° C. The decrease of absorbance at 340 nm was monitored as a function of time. The rate data as a function of inhibitor concentration was fitted to competitive inhibition kinetic model to determine the Ki.
# T1 sequence (P53779 40-402): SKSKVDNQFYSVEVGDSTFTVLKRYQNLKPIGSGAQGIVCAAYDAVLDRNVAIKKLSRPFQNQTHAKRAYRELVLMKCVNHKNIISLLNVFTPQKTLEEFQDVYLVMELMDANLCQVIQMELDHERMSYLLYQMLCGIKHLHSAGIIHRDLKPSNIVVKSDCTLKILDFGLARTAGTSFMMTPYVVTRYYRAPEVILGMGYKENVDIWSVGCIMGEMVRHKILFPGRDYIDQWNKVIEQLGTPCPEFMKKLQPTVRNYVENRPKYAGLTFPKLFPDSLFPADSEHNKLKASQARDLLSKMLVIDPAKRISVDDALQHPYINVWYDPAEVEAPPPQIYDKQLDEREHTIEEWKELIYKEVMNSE
row,Ki,SMILES
1,≥ 1000 nM,O=C1/C(=N\O)c2c(-c3ccsc3)cccc2N1Cc1cc(F)cc2c1OCOC2 [Compound 205]
2,≥ 1000 nM,O=C1/C(=N\O)c2c(-c3cc4ccccc4o3)cccc2N1Cc1cc(F)cc2c1OCOC2 [Compound 206]
3,< 1000 nM,O=C1/C(=N\O)c2ccc([N+](=O)[O-])cc2N1Cc1cc(F)cc2c1OCOC2 [Compound 207]
4,< 1000 nM,Nc1ccc2c(c1)N(Cc1cc(F)cc3c1OCOC3)C(=O)/C2=N\O [Compound 208]
5,< 1000 nM,O=C1/C(=N\O)c2ccc(NO)cc2N1Cc1cc(F)cc2c1OCOC2 [Compound 209]
6,< 1000 nM,CC(=O)Nc1ccc2c(c1)N(Cc1cc(F)cc3c1OCOC3)C(=O)/C2=N\O [Compound 210]
7,≥ 1000 nM,N#Cc1cccc2c1/C(=N/O)C(=O)N2Cc1cc(F)cc2c1OCOC2 [Compound 212]
8,≥ 1000 nM,O=C1/C(=N\O)c2ccc(NS(=O)(=O)c3ccc(Cl)cc3)cc2N1Cc1cc(F)cc2c1OCOC2 [Compound 213]
9,< 1000 nM,COCC(=O)Nc1ccc2c(c1)N(Cc1cc(F)cc3c1OCOC3)C(=O)/C2=N\O [Compound 214]
10,< 1000 nM,COC(=O)c1ccc2c(c1)N(Cc1cc(C)cc3c1OCOC3)C(=O)/C2=N\O [Compound 215]
11,< 1000 nM,Cc1cc2c(c(CN3C(=O)/C(=N\O)c4ccc(C(=O)O)cc43)c1)OCOC2 [Compound 216]
12,< 1000 nM,N#CCC(=O)Nc1ccc2c(c1)N(Cc1cc(F)cc3c1OCOC3)C(=O)/C2=N\O [Compound 217]
13,≥ 1000 nM,O=C(Nc1ccc2c(c1)N(Cc1cc(F)cc3c1OCOC3)C(=O)/C2=N\O)c1cc(=O)c2ccccc2o1 [Compound 218]
14,< 1000 nM,O=C(Cc1cccs1)Nc1ccc2c(c1)N(Cc1cc(F)cc3c1OCOC3)C(=O)/C2=N\O [Compound 219]
15,< 1000 nM,O=C(Cc1ccccc1F)Nc1ccc2c(c1)N(Cc1cc(F)cc3c1OCOC3)C(=O)/C2=N\O [Compound 220]
16,< 1000 nM,O=C(Nc1ccc2c(c1)N(Cc1cc(F)cc3c1OCOC3)C(=O)/C2=N\O)c1cc2ccccc2o1 [Compound 221]
17,≥ 1000 nM,O=C(Nc1ccc2c(c1)N(Cc1cc(F)cc3c1OCOC3)C(=O)/C2=N\O)c1csc(C2COc3ccccc3O2)n1 (stereo not drawn) [Compound 222]
18,≥ 1000 nM,CN(C)CC(=O)Nc1ccc2c(c1)N(Cc1cc(F)cc3c1OCOC3)C(=O)/C2=N\O [Compound 223]
19,< 1000 nM,CCCC(=O)Nc1ccc2c(c1)N(Cc1cc(F)cc3c1OCOC3)C(=O)/C2=N\O [Compound 224]
20,< 1000 nM,O=C(Nc1ccc2c(c1)N(Cc1cc(F)cc3c1OCOC3)C(=O)/C2=N\O)C1CCCC1 [Compound 225]

row,Ki,SMILES
1,< 1000 nM,O=C(Nc1ccc2c(c1)N(Cc1cc(F)cc3c1OCOC3)C(=O)/C2=N\O)c1ccco1 [Compound 226]
2,< 1000 nM,O=C(NCc1ccc(F)cc1)c1ccc2c(c1)N(Cc1cc(F)cc3c1OCOC3)C(=O)/C2=N\O [Compound 227]
3,≥ 1000 nM,O=C(c1ccc2c(c1)N(Cc1cc(F)cc3c1OCOC3)C(=O)/C2=N\O)N1CCOCC1 [Compound 228]
4,≥ 1000 nM,O=C(Nc1cccc(F)c1)c1ccc2c(c1)N(Cc1cc(F)cc3c1OCOC3)C(=O)/C2=N\O [Compound 229]
5,≥ 1000 nM,COc1cc(CNC(=O)c2ccc3c(c2)N(Cc2cc(F)cc4c2OCOC4)C(=O)/C3=N\O)cc(OC)c1 [Compound 230]
6,≥ 1000 nM,COc1ccccc1CNC(=O)c1ccc2c(c1)N(Cc1cc(F)cc3c1OCOC3)C(=O)/C2=N\O [Compound 231]
7,≥ 1000 nM,COc1ccc(CCNC(=O)c2ccc3c(c2)N(Cc2cc(F)cc4c2OCOC4)C(=O)/C3=N\O)cc1OC [Compound 232]
8,≥ 1000 nM,Cc1ccccc1CNC(=O)c1ccc2c(c1)N(Cc1cc(F)cc3c1OCOC3)C(=O)/C2=N\O [Compound 233]
9,≥ 1000 nM,O=C(NCc1cccc(Cl)c1)c1ccc2c(c1)N(Cc1cc(F)cc3c1OCOC3)C(=O)/C2=N\O [Compound 234]
10,≥ 1000 nM,O=C(NCc1cc(Cl)ccc1Cl)c1ccc2c(c1)N(Cc1cc(F)cc3c1OCOC3)C(=O)/C2=N\O [Compound 236]
11,≥ 1000 nM,O=C(NCc1cccnc1)c1ccc2c(c1)N(Cc1cc(F)cc3c1OCOC3)C(=O)/C2=N\O [Compound 237]
12,≥ 1000 nM,O=C(NCc1ccncc1)c1ccc2c(c1)N(Cc1cc(F)cc3c1OCOC3)C(=O)/C2=N\O [Compound 238]
13,≥ 1000 nM,O=C(NCCc1ccccn1)c1ccc2c(c1)N(Cc1cc(F)cc3c1OCOC3)C(=O)/C2=N\O [Compound 239]
14,≥ 1000 nM,O=C(NCCN1CCOCC1)c1ccc2c(c1)N(Cc1cc(F)cc3c1OCOC3)C(=O)/C2=N\O [Compound 240]
15,≥ 1000 nM,CC(C)(C)NC(=O)c1ccc2c(c1)N(Cc1cc(F)cc3c1OCOC3)C(=O)/C2=N\O [Compound 241]
16,≥ 1000 nM,CCN(Cc1ccccc1)C(=O)c1ccc2c(c1)N(Cc1cc(F)cc3c1OCOC3)C(=O)/C2=N\O [Compound 242]
17,≥ 1000 nM,CCC(NC(=O)c1ccc2c(c1)N(Cc1cc(F)cc3c1OCOC3)C(=O)/C2=N\O)c1ccccc1 (stereo not drawn) [Compound 243]
18,≥ 1000 nM,COC(=O)c1cccc2c1/C(=N/O)C(=O)N2Cc1cc(F)cc2c1OCOC2 [Compound 244]
19,≥ 1000 nM,O=C(O)c1cccc2c1/C(=N/O)C(=O)N2Cc1cc(F)cc2c1OCOC2 [Compound 245]
20,≥ 1000 nM,O=C1/C(=N\O)c2c(C#Cc3ccccc3)cccc2N1Cc1cc(F)cc2c1OCOC2 [Compound 246]

row,Ki,SMILES
1,< 1000 nM,O=C(Nc1ccc2c(c1)N(Cc1cc(F)cc3c1OCOC3)C(=O)/C2=N\O)c1ccccc1 [Compound 247]
2,< 1000 nM,O=C(Nc1ccc2c(c1)N(Cc1cc(F)cc3c1OCOC3)C(=O)/C2=N\O)c1ccc(F)cc1 [Compound 248]
3,< 1000 nM,O=C(Nc1ccc2c(c1)N(Cc1cc(F)cc3c1OCOC3)C(=O)/C2=N\O)c1ccc(F)cc1F [Compound 249]
4,< 1000 nM,COc1cccc(C(=O)Nc2ccc3c(c2)N(Cc2cc(F)cc4c2OCOC4)C(=O)/C3=N\O)c1 [Compound 250]
5,< 1000 nM,O=C(Nc1ccc2c(c1)N(Cc1cc(F)cc3c1OCOC3)C(=O)/C2=N\O)c1cccc(Cl)c1Cl [Compound 251]
6,≥ 1000 nM,O=C(Nc1ccc2c(c1)N(Cc1cc(F)cc3c1OCOC3)C(=O)/C2=N\O)c1ccc(Cl)cc1Cl [Compound 252]
7,≥ 1000 nM,O=C(Nc1ccc2c(c1)N(Cc1cc(F)cc3c1OCOC3)C(=O)/C2=N\O)c1ccc(Cl)c(Cl)c1 [Compound 253]
8,< 1000 nM,O=C(Nc1ccc2c(c1)N(Cc1cc(F)cc3c1OCOC3)C(=O)/C2=N\O)c1cccnc1 [Compound 254]
9,< 1000 nM,O=C(Nc1ccc2c(c1)N(Cc1cc(F)cc3c1OCOC3)C(=O)/C2=N\O)c1cccc(Cl)c1 [Compound 255]
10,< 1000 nM,COc1ccccc1C(=O)Nc1ccc2c(c1)N(Cc1cc(F)cc3c1OCOC3)C(=O)/C2=N\O [Compound 256]
11,≥ 1000 nM,O=C(Nc1ccc2c(c1)N(Cc1cc(F)cc3c1OCOC3)C(=O)/C2=N\O)N1CCOCC1 [Compound 257]
12,< 1000 nM,CCOC(=O)C(=O)Nc1ccc2c(c1)N(Cc1cc(F)cc3c1OCOC3)C(=O)/C2=N\O [Compound 258]
13,< 1000 nM,COC(=O)CC(=O)Nc1ccc2c(c1)N(Cc1cc(F)cc3c1OCOC3)C(=O)/C2=N\O [Compound 259]
14,< 1000 nM,O=C(Nc1ccc2c(c1)N(Cc1cc(F)cc3c1OCOC3)C(=O)/C2=N\O)c1ccc([N+](=O)[O-])cc1 [Compound 260]
15,< 1000 nM,CC(C)C(=O)Nc1ccc2c(c1)N(Cc1cc(F)cc3c1OCOC3)C(=O)/C2=N\O [Compound 261]
16,< 1000 nM,CS(=O)(=O)Nc1ccc2c(c1)N(Cc1cc(F)cc3c1OCOC3)C(=O)/C2=N\O [Compound 262]
17,< 1000 nM,CCS(=O)(=O)Nc1ccc2c(c1)N(Cc1cc(F)cc3c1OCOC3)C(=O)/C2=N\O [Compound 263]
18,≥ 1000 nM,CC(C)S(=O)(=O)Nc1ccc2c(c1)N(Cc1cc(F)cc3c1OCOC3)C(=O)/C2=N\O [Compound 264]
19,≥ 1000 nM,COc1ccc(S(=O)(=O)Nc2ccc3c(c2)N(Cc2cc(F)cc4c2OCOC4)C(=O)/C3=N\O)cc1 [Compound 265]
20,< 1000 nM,Cc1ccccc1C(=O)c1ccc2c(c1)/C(=N\O)C(=O)N2Cc1cc(F)cc2c1OCOC2 [Compound 268]
